“Also recorded” adds a separate entry of the source. Non-standard residues stand in square brackets, D forms with d. Residues, ends and D or L forms follow the SMILES beside them. No end group written: not given here. *: point of attachment. 5TAMRA = CN(C)c1ccc2c(c1)Oc1cc(N(C)C)ccc1C21OC(=O)c2cc(C(=O)*)ccc21; Dap(TAM) = not defined here; Dap = NC[C@H](N)C(=O)O
T1: Nluc::LAT-1 (lat-1p::lat-1(1-249)::Nluc::lat-1(250-650)::GFP::lat-1(651-1015)), expressed in C. elegans (C. elegans, UniProt G5EDW2 28-1014)
T1 sequence (looked up): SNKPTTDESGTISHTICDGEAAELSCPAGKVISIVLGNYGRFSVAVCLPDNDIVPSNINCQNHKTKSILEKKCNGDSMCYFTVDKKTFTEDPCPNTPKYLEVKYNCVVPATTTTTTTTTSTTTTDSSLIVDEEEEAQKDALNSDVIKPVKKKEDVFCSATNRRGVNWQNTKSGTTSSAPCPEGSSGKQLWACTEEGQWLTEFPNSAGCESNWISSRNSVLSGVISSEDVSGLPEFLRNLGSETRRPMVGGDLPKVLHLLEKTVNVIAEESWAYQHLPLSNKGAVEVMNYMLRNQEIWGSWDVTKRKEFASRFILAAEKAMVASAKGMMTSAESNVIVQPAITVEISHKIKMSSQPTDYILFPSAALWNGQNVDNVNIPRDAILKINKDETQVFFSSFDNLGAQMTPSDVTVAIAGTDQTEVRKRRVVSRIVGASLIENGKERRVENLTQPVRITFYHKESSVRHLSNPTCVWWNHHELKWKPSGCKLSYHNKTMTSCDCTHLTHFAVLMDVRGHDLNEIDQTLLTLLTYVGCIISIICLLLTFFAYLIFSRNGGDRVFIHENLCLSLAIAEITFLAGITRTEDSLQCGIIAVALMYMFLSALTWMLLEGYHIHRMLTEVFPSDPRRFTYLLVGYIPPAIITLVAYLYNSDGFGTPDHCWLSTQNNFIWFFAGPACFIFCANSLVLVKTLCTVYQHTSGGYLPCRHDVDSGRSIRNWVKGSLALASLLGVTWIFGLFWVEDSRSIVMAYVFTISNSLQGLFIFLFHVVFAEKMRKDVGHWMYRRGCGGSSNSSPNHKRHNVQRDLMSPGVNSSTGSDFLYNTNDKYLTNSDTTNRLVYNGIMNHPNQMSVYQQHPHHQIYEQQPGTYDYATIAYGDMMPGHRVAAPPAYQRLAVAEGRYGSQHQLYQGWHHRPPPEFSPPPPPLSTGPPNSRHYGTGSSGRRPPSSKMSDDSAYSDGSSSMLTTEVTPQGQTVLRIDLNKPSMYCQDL


Key:
[1] = target: Nluc::NPR-11::eYFP in membranes of transfected HEK293 cells (C. elegans) (UniProt Q18179)
Nluc::NPR-11::eYFP in membranes of transfected HEK293 cells (C. elegans), sequence (Q18179 whole entry, the tested form may be a part): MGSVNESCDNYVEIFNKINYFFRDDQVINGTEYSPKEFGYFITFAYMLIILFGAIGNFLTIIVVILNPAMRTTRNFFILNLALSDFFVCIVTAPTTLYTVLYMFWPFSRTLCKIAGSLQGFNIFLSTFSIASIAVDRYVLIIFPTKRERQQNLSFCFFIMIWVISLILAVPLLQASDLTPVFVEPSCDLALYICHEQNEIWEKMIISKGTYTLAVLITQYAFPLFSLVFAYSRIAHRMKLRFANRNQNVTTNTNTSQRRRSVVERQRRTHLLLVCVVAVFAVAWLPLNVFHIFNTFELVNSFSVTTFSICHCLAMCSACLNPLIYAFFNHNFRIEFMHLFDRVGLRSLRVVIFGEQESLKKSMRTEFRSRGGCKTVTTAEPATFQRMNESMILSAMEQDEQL

[2] = target: Nluc::NPR-11 (Nanoluciferase fused to the extracellular N terminus of the neuropeptide receptor NPR-11), expressed in C. elegans (C. elegans) (UniProt Q18179); test: FRET or BRET; NanoBRET binding in vivo: 30 Nluc-expressing C. elegans (L4 + 1 day) with incisions in 50 μl BRET buffer (HBSS + 25 mM HEPES, pH 7.4), TAM-labeled peptide 0.05-10 μM, 25 min incubation, Nano-Glo Live Cell Reagent (furimazine); Kd from one-site total and nonspecific binding fit with the scrambled peptide as nonspecific
Nluc::NPR-11 (Nanoluciferase fused to the extracellular N terminus of the neuropeptide receptor NPR-11), expressed in C. elegans (C. elegans), sequence (Q18179 whole entry, the tested form may be a part): as above

[3] = target: Nluc::NPR-11 (Nanoluciferase fused to the extracellular N terminus of the neuropeptide receptor NPR-11), expressed in C. elegans (C. elegans) (UniProt Q18179); test: as above; remark: listed apart in the source
[4] = target: Nluc::NPR-11::eYFP in membranes of transfected HEK293 cells (C. elegans) (UniProt Q18179); test: FRET or BRET; NanoBRET binding in vitro: membranes of HEK293 cells transiently transfected with Nluc::NPR-11::eYFP (0.5 μg total protein), TAM-labeled peptide 10^-12 M to 10^-5 M, BRET buffer with 0.1% BSA and Pefabloc SC, 10 min, room temperature, coelenterazine H 4 μM; three-parameter logistic …
[5] = test system: Nanoluciferase (Nluc); test: Luminescence of luciferase substrate in cut Nluc-expressing worms (Fig. 1E); details: vs coelenterazine H
Method: (§1) For luminescence measurements of intact worms, animals (1; 10; 50; 100 or 500) were directly transferred into the wells of a white flat-bottom 384-well plate in 50 μl HBSS buffer. Worms to be cut were pre-washed with M9 + 0.1% Tween to avoid sticking of worms to the dish and subsequently transferred in 2 ml of HBSS. Incisions were made in the middle of the body with a scalpel blade and worms were immediately afterwards transferred with a glass pipette into HBSS buffer on ice. For mechanically cracking, a worm suspension was homogenized in tubes with 150 μl HBSS and six glass beads (Ø = 3 mm) using with a Precellys homogenizer (Bertin instruments, France) for 40 s at 5000 rpm. Samples were placed on ice until further usage.
50 prepared worms were transferred into a white flat bottom 384-well plate in a total volume of 50 μl HBSS + 25 mM HEPES (pH 7.4; denoted BRET buffer). Immediately after adding coelenterazine H solution (Nanolight/ Prolume, USA) to a final concentration of 4 μM, luminescence was detected using an EnVision plate reader (PerkinElmer, USA) and a NanoBRET Blue 460/80 nm filter with 1000 ms integration time (five repeats every 5 min for long time observation).

[6] = test system: LAT-1; test: cAMP accumulation assay (AlphaScreen), COS-7 cells with LAT-1 plasmid (Fig. S3C); type: cell-based, C. elegans; details: for cAMP conc.: LAT-1 plasmid, 100 μM peptide, mean ± SEM of 5 independent assays, DMSO control 4.66 ± 1.72
Method: (§2) All in vitro experiments were carried out using either HEK293 cells (Homo sapiens, embryonic kidney, DSMZ (German Collection of Microorganisms and Cell Cultures) ACC 305) or COS-7 cells (African green monkey, cercopithecus aethiops, kidney, DSMZ (German Collection of Microorganisms and Cell Cultures) ACC 60). HEK293 cells were kept in Dulbecco’s Modified Eagle’s Medium (DMEM) with Ham’s F-12 (v/v) and 15% (v/v) heat-inactivated fetal calf serum (FCS), while COS-7 cells were cultured in DMEM with 10% (v/v) FCS and 1% (v/v) Penicillin-Streptomycin. All cells were kept at 37 °C under a humidified atmosphere (5% CO2).
(§3) Gs-coupling of LAT-1, quantified by detection of intracellular cAMP accumulation, was measured using an AlphaScreen cAMP detection kit (PerkinElmer, USA). Briefly, COS-7 cells (15,000 cells/ well) were transfected in 96-well plates with either 200 ng of LAT-1-encoding plasmid or empty vector using Lipofectamine2000 (ThermoFisher Scientific). 48 h post transfection, the cells were stimulated with 100 μM peptide solution in HBSS containing 1 mM 3-isobutyl-1-methylxanthine (IBMX) and 1% DMSO and control buffer without peptide for 30 min at 37 °C. Subsequently, the medium was displaced with lysis buffer (5 mM HEPES, 0.3% Tween-20, 0.1% BSA, 1 mM IBMX, pH 7.6) and plates were frozen at − 80 °C until further use. The following steps were conducted as stated in the manufactures’ protocol of the AlphaScreen cAMP detection kit (PerkinElmer, USA) and an EnVision plate reader (PerkinElmer, USA) was used to detect the fluorescence. The data were analyzed with GraphPad Prism version 6 (GraphPad Software) are presented in x-fold over the corresponding empty vector control.

[7] = target: T2, Nluc::LAT-1 (Caenorhabditis elegans, UniProt G5EDW2); test: biochemical; type: binding, C. elegans
T2 construct: Lat-1p::lat-1(1–249)::Nluc::lat-1(250–650)::GFP::lat-1(651–1015); GFP, inserted between residues 650 and 651 (so in the source); expressed in transfected cells; host or cells: transgenic C. elegans (extrachromosomal array, lat-1 knockout background), incised young adult worms
Method: All measurements were conducted using synchronized young adult worms (1 day post L4). Individuals were washed twice with HBSS (Hanks’ balanced salt solution with 25 mM HEPES, pH 7.4, 37 °C) and the number of worms/ μl was calculated.
as §1
For BRET binding assays in vivo, the nanoluciferase (Nluc) was applied as energy donor and either peptides labeled with the TAM fluorophore or the mNeonGreen fluorescent protein fused to a receptor served as acceptor.
30 Nluc-expressing worms with incisions in 50 μl BRET buffer were incubated with dissolving buffer or peptide solutions of final concentrations ranging from 0.05–10 μM in a 384-well plate. During a 25 min incubation with gentle shaking, 10 μl Nano-Glo Live Cell Reagent (N2011, Promega, USA) of a 5x stock were added according to manufacturer’s instructions after 15 min to each well. Competition-binding assays were performed similarly, but additionally, unlabeled peptide (final concentrations 0.016–10 μM) was pipetted into each well and 5 μl of a 10x stock Nano-Glo Live cell reagent was applied after 15 min.
Luminescence (L) and fluorescence (F) were detected with a microplate plate reader (Tecan Spark) using the following filter set: donor = 430–470 nm, acceptor = 550–700 nm with 1000 ms integration time. BRET was calculated by dividing F values by L values. For each experiment, the background signal of donor-only cells was subtracted, such that the BRET ratio at 0 μM ligand equals 0.00. In Fig. 3B (left) and Fig. 3D, the mean of n = 4 (NPR-11) or n = 3 (LAT-1) independent, individually background-corrected single experiments is presented.

[8] = test system: empty vector-transfected COS-7 cells; test: cAMP accumulation assay (AlphaScreen), COS-7 cells with empty vector (Fig. S3C); type: cell-based, African green monkey; details: 100 μM peptide, mean ± SEM of 5 independent assays, DMSO control 5.39 ± 2.15
Method: as §2
as §3, with “48 h post transfection, the cells were stimulated with 100 μM peptide solution in HBSS containing 1 mM 3-isobutyl-1-methylxanthine (IBMX) and 1% DMSO and control buffer without peptide for 30 min at 37 °C. Subsequently, the medium was displaced with lysis buffer (5 mM HEPES, 0.3% Tween-20, 0.1% BSA, 1 mM IBMX, pH 7.6) and plates were frozen at − 80 °C until further use.” left out

[9] = target: T1, Nluc::LAT-1 …; test: cell-based or functional assay

Row | Molecule | cAMP reporter gene assay, forskolin-stimulated HEK293 cells transfected with NPR-11::eYFP (no Nluc): EC50 of NPR-11 activation [1] [nM] | cAMP conc. [6] [nM] | Kd [7] [nM] | cAMP conc. [8] [nM] | further results
1 | FLP-34-1 (unlabeled) (peptide) | 2.3 | – | – | – | –
2 | TAM-FLP-34-1 (tetramethylrhodamine-labeled FLP-34-1) (peptide) | 0.5 | – | – | – | Kd [2]: 1500 nM; increase in the BRET ratio at 10 μM [3]: 0.08; Kd [4]: 388 nM
3 | O=c1c(Cc2ccco2)nc2c(Cc3ccccc3)[nH]c(-c3ccccc3)cn1-2 [furimazine] | – | – | – | – | luminescence signal over time [5]: stable values over the entire time period; also recorded: lower but more stable luminescence signal
4 | CSCC[C@H](N)C(=O)N[C@@H](CC(=O)O)C(=O)N[C@H](C(=O)N[C@@H](CCCNC(=N)N)C(=O)N[C@@H](C)C(=O)N[C@H](C(=O)N[C@@H](Cc1c[nH]cn1)C(=O)N[C@@H](Cc1c[nH]cn1)C(=O)NCC(=O)N[C@H](C(=O)N[C@@H](CC(C)C)C(=O)N[C@@H](Cc1ccccc1)C(=O)N[C@@H](CNC(=O)c1ccc2c(c1)C(=O)OC21c2ccc(N(C)C)cc2Oc2cc(N(C)C)ccc21)C(=O)O)C(C)C)C(C)C)[C@@H](C)O [TAM-scrpLAT-1] (H-MDTRAVHHGVLF[Dap](5TAMRA)-OH) | – | 4.63 ± 0.81 | > 10000 | 4.45 ± 0.71 | cAMP accumulation / receptor activation ([6]; 100 μM): did not lead to a cAMP accumulation; also recorded: does not activate the receptor; BRET ratio relative to TAM-pLAT-1 ([7]; at 10 μM): one-third higher
5 | CSCC[C@H](NC(=O)[C@H](CC(C)C)NC(=O)[C@@H](NC(=O)[C@H](C)NC(=O)[C@H](Cc1ccccc1)NC(=O)[C@H](Cc1c[nH]cn1)NC(=O)[C@@H](N)[C@@H](C)O)C(C)C)C(=O)N[C@@H](CC(=O)O)C(=O)N[C@H](C(=O)N[C@@H](CCCNC(=N)N)C(=O)NCC(=O)N[C@@H](Cc1c[nH]cn1)C(=O)N[C@@H](CNC(=O)c1ccc2c(c1)C(=O)OC21c2ccc(N(C)C)cc2Oc2cc(N(C)C)ccc21)C(=O)O)C(C)C [TAM-pLAT-1] (H-THFAVLMDVRGH[Dap](5TAMRA)-OH) | – | 3.69 ± 0.70 | > 10000 | 2.86 ± 0.60 | cAMP accumulation over control ([6]; 100 μM, 30 min, 37 °C, IBMX): 1.5 -fold
6 | THFAVLMDVRGH-{Dap(TAM)} (reading uncertain) [TAM-pLAT-1 (TAM-labeled synthetic peptide derived from the tethered agonist sequence of LAT-1)] | – | – | – | – | cAMP accumulation (AlphaScreen) in COS-7 cells transfected with a LAT-1-encoding plasmid, 100 μM peptide [9]: 1.5 fold over control

From paper PMC8805316, “NanoBRET in C. elegans illuminates functional receptor interactions in real time” (BMC Molecular and Cell Biology, 2022)
